Test results: patent US10238670B2, “9-aminomethyl minocycline compounds and methods of use thereof in urinary tract infection (UTI) treatment” (Paratek Pharmaceuticals, Inc., priority 2016, dated 2019)
Values after ≈ are worked out from the molar mass of the structure shown.

Test system: S. saprophyticus
Assay: In vitro MIC90 against common uncomplicated UTI pathogens
Assay type: cell-based
Conditions: Staphylococcus saprophyticus
Description: The minimum inhibitory concentrations for at least 90% of the isolates (MIC90) tested for Compound 1 against these common pathogens are 1 μg/mL for S. saprophyticus, 2 μg/mL for ESBL-negative E. coli, and 4 μg/mL for ESBL-producing E. coli.

CN(C)c1cc(CNCC(C)(C)C)c(O)c2c1C[C@H]1C[C@H]3[C@H](N(C)C)C(O)=C(C(N)=O)C(=O)[C@@]3(O)C(O)=C1C2=O [Compound 1, 9-[(2,2-dimethyl-propylamino)-methyl]-minocycline]
MIC90: 1 µg/mL (≈ 1.8 µM)
